Experimental data as given in patent US9005670B2, “Use of histone acetyltransferase inhibitors as novel anti-cancer therapies” (The Johns Hopkins University, priority 2010, dated 2015).

Assays:
[1] = target: PCAF (p300/CBP-associated factor) (Homo sapiens, UniProt Q92831); assay: PCAF coupled spectrophotometric assay; type: biochemical; conditions: 10 μM compound; read-out: Percent inhibition of acetyltransferase, PCAF
WM983A melanoma cells = assay: 3H-thymidine incorporation, WM983A; conditions: Homo sapiens, read-out: IC50 (proliferation, 3H-thymidine incorporation)
Sas2/4/5 complex = target: T1, Sas2/4/5 complex (Saccharomyces cerevisiae, UniProt P40963); assay: SAS complex direct radioactive HAT assay; type: biochemical; conditions: 10 μM compound; read-out: Percent inhibition of acetyltransferase, Sas
T1 construct: made in house; host or cells: E. coli BL21-CodonPlus(DE3)-RIL
T1 sequence (P40963 whole entry): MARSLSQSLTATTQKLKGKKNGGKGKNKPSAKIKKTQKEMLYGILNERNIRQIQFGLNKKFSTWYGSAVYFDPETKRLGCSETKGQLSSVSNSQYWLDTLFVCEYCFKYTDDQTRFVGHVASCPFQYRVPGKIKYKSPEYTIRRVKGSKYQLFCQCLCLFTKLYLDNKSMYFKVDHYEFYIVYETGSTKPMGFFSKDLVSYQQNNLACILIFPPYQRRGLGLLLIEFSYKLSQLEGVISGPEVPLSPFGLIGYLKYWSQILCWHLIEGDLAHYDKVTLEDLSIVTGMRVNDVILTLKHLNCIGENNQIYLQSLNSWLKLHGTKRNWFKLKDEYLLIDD
T1 sequence (Q04003 whole entry partner): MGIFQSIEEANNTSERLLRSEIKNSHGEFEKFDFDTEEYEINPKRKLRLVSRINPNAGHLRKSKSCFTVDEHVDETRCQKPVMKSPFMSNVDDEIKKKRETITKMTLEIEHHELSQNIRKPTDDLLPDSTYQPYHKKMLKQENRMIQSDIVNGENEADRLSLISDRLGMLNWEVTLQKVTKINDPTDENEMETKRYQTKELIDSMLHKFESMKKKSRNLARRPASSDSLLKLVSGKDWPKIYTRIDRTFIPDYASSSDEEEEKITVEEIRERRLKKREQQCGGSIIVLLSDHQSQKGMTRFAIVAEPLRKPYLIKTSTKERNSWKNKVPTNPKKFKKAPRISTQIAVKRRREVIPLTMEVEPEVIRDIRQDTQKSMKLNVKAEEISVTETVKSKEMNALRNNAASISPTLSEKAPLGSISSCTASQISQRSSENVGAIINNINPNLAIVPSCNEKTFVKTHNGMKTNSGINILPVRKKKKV
T1 sequence (Q99314 whole entry partner): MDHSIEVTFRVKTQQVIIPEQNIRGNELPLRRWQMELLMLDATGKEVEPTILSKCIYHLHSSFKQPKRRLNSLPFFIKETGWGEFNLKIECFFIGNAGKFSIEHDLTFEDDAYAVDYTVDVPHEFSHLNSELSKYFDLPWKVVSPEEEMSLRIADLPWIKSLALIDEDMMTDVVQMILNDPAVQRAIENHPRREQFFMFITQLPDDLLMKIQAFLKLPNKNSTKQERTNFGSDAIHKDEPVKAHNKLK
Experimental: PCAF reactions were performed in 100 mM HEPES, pH 7.9, and contained 200 μM TPP, 5 mM MgCl2, 1 mM DTT, 50 mM NaCl, 0.05 mg/mL BSA, 200 μM NAD, 2.4 mM α-KG, 30 μM acetyl-CoA, 0.037 units α-KGDH, 3.3% DMSO, and 10 μM inhibitor. Reactions took place at 30° C. Reactions were initiated by addition of 10 nM PCAF and were followed at 340 nm over the linear portion of the curve below 10% turnover. AANAT reactions were performed in 100 mM NH4 OAc, pH 6.8, and contained 200 μM TPP, 5 mM MgCl2, 1 mM DTT, 50 mM NaCl, 0.05 mg/mL BSA, 200 μM NAD, 2.4 mM α-KG, 200 μM AcCoA, 0.1 units α-KGDH, 3.3% DMSO, and 10 μM inhibitor. Reactions took place at 25° C. Reactions were initiated with addition of 65 nM AANAT, and followed at 340 nm, as above. Percent inhibition values were compared to those with p300, which were repeated using the protocol given above. […]
HAT assays with yeast GCN5, SAS complex, MOZ, and Rtt109/Vps75 complex used the direct radioactive assay described above. […] The amount of enzyme used in each assay was estimated by comparing Coomassie Blue staining of samples with bovine serum albumin standards, analyzed by SDS-PAGE. […] The rate of ^14C-incorporation into histone H3 was quantified by autoradiography. […]

[2] = test system: cyclin A in melanoma cells; assay: cyclin A protein expression, Western blot; type: cell-based; conditions: 10-20 μM C646
Source text: FIGS. 19A and 19B show the effects of p300/CBP HAT inhibition on cyclin A protein expression in melanoma cells.
Cyclin A is involved in two cell cycle checkpoints. Cyclin A associates with cdk2 to promote S phase progression, and then it associates with cdc2 during the G2 phase.

[3] = test system: melanoma cell lines from varying stages of progression; assay: 3H-thymidine incorporation, melanoma lines of varying stages; type: cell-based; conditions: 24 hours
Experimental: Proliferation was measured via ^3H-thymidine incorporation.

D54 glioblastoma cells = assay: AlamarBlue growth inhibition, D54; type: cell-based; conditions: D54, 72 hours
Experimental: Dose response curves were generated using the AlamarBlue® assay (Invitrogen, Carlsbad, Calif.).
When inhibition was assessed using the AlamarBlue® assay (Invitrogen, Carlsbad, Calif.), cells were initially seeded at 500 cells per well in a 96-well plate. AlamarBlue® is a non-toxic reagent that measures cellular metabolic activity. Its main ingredient is resazurin, a non-fluorescent indicator dye that is reduced to bright red-fluorescent resorufin in metabolically active cells. AlamarBlue® was added to growth medium at 1/10 of the total volume (e.g., 20 μl in 200 μl total volume). […] Fluorescence reading was taken from the same plate every day for 5 days to ensure that the saturation point was not reached. Fluorescence intensity is proportional to the number of live cells in the plate.

Chain of PCAF (p300/CBP-associated factor) (Q92831 493-658 limits assumed, species assumed): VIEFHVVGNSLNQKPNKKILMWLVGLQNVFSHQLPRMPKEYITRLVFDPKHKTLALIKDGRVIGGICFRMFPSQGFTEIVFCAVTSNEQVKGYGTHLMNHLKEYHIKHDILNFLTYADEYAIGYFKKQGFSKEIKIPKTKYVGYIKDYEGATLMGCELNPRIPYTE

SMILES: CC1=NN(c2ccc(C(=O)O)cc2)C(=O)C1=Cc1ccc(-c2cc(C)c(C)cc2[N+](=O)[O-])o1 [Compound C646, 4-(4,5-dihydro-3-methyl-4-((5-(4,5-dimethyl-2-nitrophenyl)furan-2-yl)methylene)-5-oxopyrazol-1-yl)benzoic acid]
- inhibition at 10 µM [1]: < 10%
- IC50 (WM983A melanoma cells): 10 to 20 µM
- inhibition at 10 µM (Sas2/4/5 complex): < 10%
- cyclin A protein level [2]: decreases after C646 treatment in a dose-dependent fashion
- 3H-thymidine incorporation [3]: reduced ^3H-thymidine incorporation
- IC50 (D54 glioblastoma cells): 9.3 µM
